The source of these data is patent US20080171742A1, “4-(Pyrid-2-Yl) Amino Substituted Pyrimidine as Protein Kinase Inhibitors” (AsraZeneca, priority 2005, published 2008).

SMILES strings stand for the structures.

This assay deals with murine fibroblasts (NIH3T3) over-expressing human IGF-1 receptor. The assay is described as follows: Inhibition of IGF-stimulated cell proliferation (BrdU incorporation), Test (c). It is filed as cell-based. As to conditions: NIH3T3/IGFR cells, IGF-1 20 ng/ml. The procedure:
The construction of murine fibroblasts (NIH3T3) over-expressing human IGF-1 receptor has been described by Lammers et al (EMBO J, 8, 1369-1375, 1989). These cells show a proliferative response to IGF-I which can be measured by BrdU incorporation into newly synthesised DNA. Compound potency was determined as causing inhibition of the IGF-stimulated proliferation in the following assay:
Compounds are initially dissolved in DMSO to 10 mM, followed by dilutions in DMEM+1% FCS+glutamine to give a range from […] in 1-0.00045% DMSO final concentration in assay well.
Exponentially growing NIH3T3/IGFR cells were harvested and seeded in complete growth medium into a flat-bottomed 96 well tissue culture grade plate (Costar 3525) at 1.2×10^4 cells per well in a volume of 100 μl.
Growth medium was carefully removed from each well using a multi-channel pipette. Wells were carefully rinsed three times with 200 μl with HBSS. 100 μl of starvation medium was added to each well and the plate was re-incubated for 24 hours.
50 μl of a 4× concentrate of test compound was added to appropriate wells. Cells were incubated for 30 minutes with compound alone before the addition of IGF. […]
The incorporation of BrdU in the cells (after a 4 h incorporation period) was assessed using the BrdU Cell Proliferation Elisa according to the manufacturer's protocol.
Background: Incorporation of labelled thymidine or its analogues reports DNA synthesis.

In the case of `Cc1ccc(Nc2cc(C)nc(N3CCC[C@H]3c3cc(-c4ccccn4)no3)n2)nc1` [Example 13, S-6-Methyl-2-{2-[3-(pyrid-2-yl)isoxazol-5-yl]pyrrolidin-1-yl}-4-(5-methylpyrid-2-ylamino)pyrimidine], the IC50 – broadly, the concentration needed to halve the response being measured – was determined as 130 nM.
In turn, `Cc1cc(Nc2ccccn2)nc(N2CCC[C@H]2c2cc(-c3ccccn3)no2)n1` [Example 1, S-6-Methyl-2-{2-[3-(pyrid-2-yl)isoxazol-5-yl]pyrrolidin-1-yl}-4-(pyrid-2-ylamino)pyrimidine] gave an IC50 of 310 nM.
